In ChEMBL document CHEMBL4627246, “Pyroglutamide-Based P2X7 Receptor Antagonists Targeting Inflammatory Bowel Disease” (J Med Chem, 2020):

Key:
Type in all cases: cell-based
UACC-62 = assay: Cytotoxicity against human UACC62 cells assessed as effect on cell growth at 10 uM incubated for 48 hrs by sulforhodamine B assay; settings: uacc-62, 48 h
NCI-H322M = assay: Cytotoxicity against human NCI-H322M cells assessed as effect on cell growth at 10 uM incubated for 48 hrs by sulforhodamine B assay
NCI-H226 = assay: Cytotoxicity against human NCI-H226 cells assessed as effect on cell growth at 10 uM incubated for 48 hrs by sulforhodamine B assay; settings: nci-h226, 48 h
786-0 = assay: Cytotoxicity against human 786-0 cells assessed as effect on cell growth at 10 uM incubated for 48 hrs by sulforhodamine B assay; settings: 786-0, 48 h
HOP-92 = assay: Cytotoxicity against human HOP92 cells assessed as effect on cell growth at 10 uM incubated for 48 hrs by sulforhodamine B assay; settings: hop-92, 48 h
MCF7 = assay: Cytotoxicity against human MCF7 cells assessed as effect on cell growth at 10 uM incubated for 48 hrs by sulforhodamine B assay; settings: mcf7, 48 h
SF-268 = assay: Cytotoxicity against human SF268 cells assessed as effect on cell growth at 10 uM incubated for 48 hrs by sulforhodamine B assay; settings: sf-268, 48 h
MDA-MB-468 = assay: Cytotoxicity against human MDA-MB-468 cells assessed as effect on cell growth at 10 uM incubated for 48 hrs by sulforhodamine B assay; settings: mda-mb-468, 48 h
OVCAR-5 = assay: Cytotoxicity against human OVCAR5 cells assessed as effect on cell growth at 10 uM incubated for 48 hrs by sulforhodamine B assay; settings: ovcar-5, 48 h
HCT-116 = assay: Cytotoxicity against human HCT116 cells assessed as effect on cell growth at 10 uM incubated for 48 hrs by sulforhodamine B assay; settings: hct-116, 48 h
M14 = assay: Cytotoxicity against human M14 cells assessed as effect on cell growth at 10 uM incubated for 48 hrs by sulforhodamine B assay; settings: m14, 48 h
PC-3 = assay: Cytotoxicity against human PC3 cells assessed as effect on cell growth at 10 uM incubated for 48 hrs by sulforhodamine B assay; settings: pc-3, 48 h
Malme-3M = assay: Cytotoxicity against human MALME-3M cells assessed as effect on cell growth at 10 uM incubated for 48 hrs by sulforhodamine B assay
HCT-15 = assay: Cytotoxicity against human HCT15 cells assessed as effect on cell growth at 10 uM incubated for 48 hrs by sulforhodamine B assay; settings: hct-15, 48 h
MDA-MB-231 = assay: Cytotoxicity against human MDA-MB-231 cells assessed as effect on cell growth at 10 uM incubated for 48 hrs by sulforhodamine B assay; settings: mda-mb-231, 48 h
EKVX = assay: Cytotoxicity against human EKVX cells assessed as effect on cell growth at 10 uM incubated for 48 hrs by sulforhodamine B assay
DU-145 = assay: Cytotoxicity against human DU145 cells assessed as effect on cell growth at 10 uM incubated for 48 hrs by sulforhodamine B assay; settings: du-145, 48 h
U-251 = assay: Cytotoxicity against human U251 cells assessed as effect on cell growth at 10 uM incubated for 48 hrs by sulforhodamine B assay; settings: u-251, 48 h
SK-MEL-5 = assay: Cytotoxicity against human SK-MEL-5 cells assessed as effect on cell growth at 10 uM incubated for 48 hrs by sulforhodamine B assay; settings: sk-mel-5, 48 h
HL-60(TB) = assay: Cytotoxicity against human HL-60(TB) cells assessed as effect on cell growth at 10 uM incubated for 48 hrs by sulforhodamine B assay

Measured: Activity

CN1C(=O)C(C)(C)C[C@H]1C(=O)NCc1cccc(C(F)(F)F)c1Cl
Non-Toxic: all assays above

O=C(NCCc1ccccc1)[C@@H]1CCC(=O)N1Cc1ccc(Cl)cc1Cl
Non-Toxic: all assays above

O=C1N[C@H](C(=O)NCc2ccc(Cl)cc2Cl)C/C1=C\N1CCOCC1
Non-Toxic: all assays above

O=C(NCc1ccc(Cl)cc1Cl)[C@@H]1CCC(=O)N1c1ccsc1
Non-Toxic: all assays above

O=C1CCCC(C(=O)NCc2ccc(Cl)cc2Cl)N1 (stereo not given)
Non-Toxic: all assays above

O=C(NCc1ccc(Cl)cc1Cl)[C@@H]1COC(=O)N1c1cccs1
Non-Toxic: all assays above

CN1CCN(/C=C2\C[C@@H](C(=O)NCc3ccc(Cl)cc3Cl)N(c3cccs3)C2=O)CC1
Non-Toxic: all assays above

COc1ccc(CN2C(=O)[C@@H]3C/C(=C\N(C)C)C(=O)N3C2N(C)C)c(OC)c1 (stereo not given in full)
Non-Toxic: all assays above

O=C(NCCc1ccccc1)[C@@H]1CCC(=O)N1Cc1ccc(Br)cc1
Non-Toxic: all assays above
